The values below come from US9708306B2, “Benzimidazole derivatives and preparation process and pharmaceutical uses thereof” (WUHAN LL SCIENCE AND TECHNOLOGY DEVELOPMENT CO., LTD, priority 2015, dated 2017).

The test system of test [1] is renovascular hypertensive rats. In words: Effect on reducing blood pressure of renovascular hypertensive rats by single oral administration of potassium salt of QR01019. The test is classed as in vivo, Wistar rats. The conditions noted are these: RHR; for Maximum blood pressure reduction / Variations on heart rate: 1.0 mg/kg, single oral administration. As for the experimental part: Wistar rats (provided by Hubei Province Disease Prevention Control Center, Wuhan, Hubei), male, weighted of 180 to 200 g, are randomly classified into 5 groups, including negative control group (0.5% CMC-Na), positive control group (1.0 mg/kg of potassium salt of Azilsartan medoxomil as the positive drug) and three groups with the test compound, QR01019 potassium salt (1.0 mg/kg), 6-8 animals per group. The unilateral renal artery of the rates were ligated to form two-kidney, one-clip renovascular hypertensive rat (RHR) models. After the surgery, the blood pressure was measured for weekly, and the measurement continued for 4 weeks. The rats whose blood pressures were steadily elevated by 4 kPa were successfully modeled rats. Before measuring blood pressure, the rat tails were heated by using a cyclic water bath tail sleeve at 39° C. to expand tail vessel, and thereafter, a tail sleeve method (BP2010A noninvasive blood pressure meter, Beijing Jiandeer Technology Limited Corporation, No. 1, Shangdi 10th Street, Haidian District, Beijing) was used to measure the blood pressures and heart rates of the rats before the administrations and at 1, 3, 5, 7, and 10 hours after oral administration, and each of the time points was measured three times to take the mean value. Maximum Blood pressure reduction (%)=maximum blood pressure reduction value after the administration/blood pressure value before the administration*100%.

Test [2] relates to renovascular hypertensive rats. Kind of test: Effect on reducing blood pressure of renovascular hypertensive rats by single oral administration. The test is classed as in vivo, Wistar rats. The conditions noted are these: for change in vivo at 0.5 mg/kg / inhibition in vivo at 0.5 mg/kg / change in vivo at 1 mg/kg / inhibition in vivo at 1 mg/kg / change in vivo at 2 mg/kg / inhibition in vivo at 2 mg/kg: Rattus norvegicus, single oral administration; for change in vivo at 0.5 mg/kg / change in vivo at 1 mg/kg / change in vivo at 2 mg/kg: RHR, read-out: Variations on heart rate; for inhibition in vivo at 0.5 mg/kg / inhibition in vivo at 1 mg/kg / inhibition in vivo at 2 mg/kg: two-kidney one-clip RHR, measured 1-10 h, read-out: Maximum blood pressure reduction; for blood pressure reduction at 24 hours after the administration / blood pressure reduction effect compared with Azilsartan medoxomil / lasting time of the blood pressure reduction effect compared with Azilsartan medoxomil: renal artery-ligated rat; for blood pressure reduction at 24 hours after the administration: dose not stated; for blood pressure reduction effect compared with Azilsartan medoxomil / lasting time of the blood pressure reduction effect compared with Azilsartan medoxomil: result in words.

The test system of the next test is normal rats. In words: Effect on blood pressure of normal rats by single oral administration. The format is in vivo, Wistar rats. The conditions noted are these: Rattus norvegicus, po, single, normal rats; for inhibition in vivo at 0.5 mg/kg / inhibition in vivo at 1 mg/kg / inhibition in vivo at 2 mg/kg: 8 h, read-out: blood pressure reduction at 8 h after the administration; for inhibition in vivo at 0.5 mg/kg / change in vivo at 0.5 mg/kg: 0.5 mg/kg p.o.; for inhibition in vivo at 1 mg/kg / change in vivo at 1 mg/kg: 1.0 mg/kg p.o.; for inhibition in vivo at 2 mg/kg / change in vivo at 2 mg/kg: 2.0 mg/kg p.o.; for change in vivo at 0.5 mg/kg / change in vivo at 1 mg/kg / change in vivo at 2 mg/kg: read-out: variations on heart rate.

For test [3], the system named is spontaneously hypertensive rats (SHR). In words: Effect on reducing blood pressure of spontaneously hypertensive rats (SHR) by multiple oral administrations. The test is classed as in vivo. The conditions noted are these: for blood pressure reduction effect compared with Azilsartan medoxomil / reduction effects on the heart rate of SHR rats: result in words; for reduction effects on the heart rate of SHR rats: during the whole administration.

[4] abbreviates: Rattus norvegicus, 0.5 mg/kg oral once per day, SHR, 1 hour after the administration, read-out: Maximum blood pressure reduction, 1st-day administration.
Where [5] appears, read: Rattus norvegicus, 0.5 mg/kg oral once per day, SHR, 1 hour after the administration, read-out: Maximum blood pressure reduction, 7th-day administration.
The mark [6] stands for this setting: Rattus norvegicus, 0.5 mg/kg oral once per day, SHR, 1 hour after the administration, read-out: Maximum blood pressure reduction, 14th-day administration.
The mark [7] stands for this setting: Rattus norvegicus, 1.0 mg/kg oral once per day, SHR, 1 hour after the administration, read-out: Maximum blood pressure reduction, 1st-day administration.
[8] abbreviates: Rattus norvegicus, 1.0 mg/kg oral once per day, SHR, 1 hour after the administration, read-out: Maximum blood pressure reduction, 7th-day administration.
Where [9] appears, read: Rattus norvegicus, 1.0 mg/kg oral once per day, SHR, 1 hour after the administration, read-out: Maximum blood pressure reduction, 14th-day administration.
Setting [10] is: Rattus norvegicus, 1.0 mg/kg oral, SHR, read-out: Heart Rate (effect on reducing heart rate).
The mark [11] stands for this setting: Rattus norvegicus, 2.0 mg/kg oral once per day, SHR, 1 hour after the administration, read-out: Maximum blood pressure reduction, 1st-day administration.
The mark [12] stands for this setting: Rattus norvegicus, 2.0 mg/kg oral once per day, SHR, 1 hour after the administration, read-out: Maximum blood pressure reduction, 7th-day administration.
Where [13] appears, read: Rattus norvegicus, 2.0 mg/kg oral once per day, SHR, 1 hour after the administration, read-out: Maximum blood pressure reduction, 14th-day administration.
Setting [14] is: Rattus norvegicus, 2.0 mg/kg oral, SHR, read-out: Heart Rate (effect on reducing heart rate).

Like-named read-outs stand apart in the source and are kept apart here.

In the case of `CCOc1nc2cccc(C(=O)OCc3oc(=O)oc3C)c2n1Cc1ccc(-c2ccccc2-c2noc(=O)[n-]2)cc1.[K+]` [Positive control, potassium salt of Azilsartan medoxomil, reference compound], in test [1], the “Maximum blood pressure reduction” value was 34 ± 3.6% and the “Variations on heart rate” value is −14 ± 7%.

With `CCOc1nc2cccc(C(=O)OC(C)OC(=O)OCc3nc(C)c(C)nc3C)c2n1Cc1ccc(-c2ccccc2-c2noc(=O)[nH]2)cc1.[K]` (stereo not shown) [QR01019 potassium salt], in test [1], the “Maximum blood pressure reduction” value is listed as 38 ± 4.3% and the “Variations on heart rate” value is given as −18 ± 5%. The “regulation on the heart rate compared with positive control group” value in test [1] (result in words) is reported as “obviously superior to the positive control group”. Besides, in test [1] (same dosage, result in words), the “blood pressure reduction effect compared with control group” value is listed as “significant blood pressure reduction effect”.

`CCOc1nc2cccc(C(=O)OCOC(=O)C(C)(C)C)c2n1Cc1ccc(-c2ccccc2-c2noc(=O)[nH]2)cc1` [QR01005]: the change in vivo at 0.5 mg/kg in test [2] is -10 ± 3%; in the test on normal rats it was -3 ± 1%. For the same compound, the inhibition in vivo at 0.5 mg/kg was found to be 16 ± 3.2% in test [2]; 6.3 ± 1.3% with normal rats; 16 ± 4.8% in test [3] (setting [4]); 18 ± 5.2% in test [3] (setting [5]); 21 ± 3.9% in test [3] (setting [6]). The change in vivo at 1 mg/kg was -21 ± 6% in test [2] and -6 ± 6% with normal rats. In addition, the inhibition in vivo at 1 mg/kg stood at 36 ± 3.1% in test [2]; 3.6 ± 2.1% in the test with normal rats; 38 ± 3.7% in test [3] (setting [7]); 40 ± 6.2% in test [3] (setting [8]); 42 ± 6.1% in test [3] (setting [9]); 23 ± 6% in test [3] (setting [10]). In addition, the values for the change in vivo at 2 mg/kg (in test [2]; in the test on normal rats) were -25 ± 6% and 8%, respectively. Moreover, the inhibition in vivo at 2 mg/kg in test [2] came out at 43 ± 3.5%; in the test on normal rats it was 4.8 ± 2.3%; in test [3] (setting [11]) it was 45 ± 4.8%; in test [3] (setting [12]), 41 ± 6.2%; in test [3] (setting [13]) it was 45 ± 7.2%; in test [3] (setting [14]), 21 ± 4%. Moreover, in test [2], the “blood pressure reduction at 24 hours after the administration” value was 21%. Besides, the “blood pressure reduction effect compared with Azilsartan medoxomil” value in test [2] and in test [3] (SHR) was “obviously superior to that of the Azilsartan medoxomil positive drug” throughout. For the same compound, in test [2], the “lasting time of the blood pressure reduction effect compared with Azilsartan medoxomil” value is given as “close to that of Azilsartan medoxomil”. In addition, the inhibition in vivo at 5 mg/kg in test [3] (Rattus norvegicus, 5 mg/kg oral, SHR, read-out: Heart Rate (effect on reducing heart rate)) was found to be 18 ± 5%. In test [3], the “reduction effects on the heart rate of SHR rats” value is “significant reduction effects on the heart rate”.

`CCOc1nc2cccc(C(=O)OCc3oc(=S)oc3C)c2n1Cc1ccc(-c2ccccc2-c2noc(=O)[nH]2)cc1` [QR01013]: the change in vivo at 0.5 mg/kg in test [2] is -6 ± 4%; in the test with normal rats, -3 ± 4%. Further, the inhibition in vivo at 0.5 mg/kg came to 16 ± 3% in test [2]; 4.2 ± 2.7% in the test on normal rats; 14 ± 5.9% in test [3] (setting [4]); 15 ± 7.1% in test [3] (setting [5]); 17 ± 5.8% in test [3] (setting [6]). For the same compound, the change in vivo at 1 mg/kg in test [2] is -8 ± 3%; with normal rats it was 5%. Moreover, the inhibition in vivo at 1 mg/kg was determined as 25 ± 4.5% in test [2]; 6.2 ± 2.3% in the test with normal rats; 24 ± 5.8% in test [3] (setting [7]); 28 ± 6% in test [3] (setting [8]); 27 ± 6.4% in test [3] (setting [9]). For the same compound, the change in vivo at 2 mg/kg in test [2] is -10 ± 5%; in the test with normal rats it was -5 ± 4%. The inhibition in vivo at 2 mg/kg was 34 ± 7.1% in test [2]; 3.4 ± 4.2% in the test on normal rats; 34 ± 5.9% in test [3] (setting [11]); 38 ± 5.7% in test [3] (setting [12]); 39 ± 7.1% in test [3] (setting [13]).

For `CCOc1nc2cccc(C(=O)OCc3no[n+]([O-])c3CO[N+](=O)[O-])c2n1Cc1ccc(-c2ccccc2-c2noc(=O)[nH]2)cc1` [QR01034], the change in vivo at 0.5 mg/kg is -12 ± 8% in test [2] and -2 ± 5% with normal rats. Besides, the inhibition in vivo at 0.5 mg/kg in test [2] turned out to be 23 ± 1.9%; with normal rats, 3.4 ± 2.6%; in test [3] (setting [4]), 25 ± 8.1%; in test [3] (setting [5]), 28 ± 7.4%; in test [3] (setting [6]), 26 ± 5.1%; in test [3] (Rattus norvegicus, 0.5 mg/kg oral, SHR, read-out: Heart Rate (effect on reducing heart rate)) it was 19 ± 2%. Moreover, the change in vivo at 1 mg/kg was -15 ± 7% in test [2] and 5% in the test with normal rats. Further, the inhibition in vivo at 1 mg/kg in test [2] worked out at 36 ± 4.8%; in the test with normal rats it was 5.1 ± 3.6%; in test [3] (setting [7]), 39 ± 7.5%; in test [3] (setting [8]) it was 39 ± 6.8%; in test [3] (setting [9]), 42 ± 5.9%; in test [3] (setting [10]), 15 ± 4%. Besides, the change in vivo at 2 mg/kg in test [2] is -21 ± 7%; in the test with normal rats it was -2 ± 5%. Also, the inhibition in vivo at 2 mg/kg in test [2] was found to be 45 ± 6%; in the test on normal rats, 3.4 ± 5%; in test [3] (setting [11]), 44 ± 8.6%; in test [3] (setting [12]), 45 ± 7%; in test [3] (setting [13]), 46 ± 7.3%; in test [3] (setting [14]) it was 21 ± 3%. Also, in test [2], the “blood pressure reduction at 24 hours after the administration” value was 25%. Besides, the “blood pressure reduction effect compared with Azilsartan medoxomil” value in test [2] and in test [3] (SHR) was “obviously superior to that of the Azilsartan medoxomil positive drug” in each case. For the same compound, the “lasting time of the blood pressure reduction effect compared with Azilsartan medoxomil” value in test [2] is “close to that of Azilsartan medoxomil”. Besides, the “reduction effects on the heart rate of SHR rats” value in test [3] is “significant reduction effects on the heart rate”.
